PubChem BioAssay AID248 (DTP/NCI, 2004)
Several values for one entry are separate records, joined by “and”; a condition that tells them apart may be missing. Identical values can stand only once. Inconclusive results and toxic doses are left out. Rule as the data show it: active = T/C of 150% or more; inactive = T/C below 125%.

System: L1210 leukemia ip in BDF1 mice, survival T/C
Experiment: NCI In Vivo Anticancer Drug Screen. Data for tumor model L1210 Leukemia (intraperitoneal) in B6D2F1 (BDF1) mice
Conditions: endpoint: mean survival time, higher = longer survival
Summary of the method: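 Tumor was transplanted into mice, which were then dosed with test compound or vehicle alone. Survival was recorded for each group, and the treated figure was expressed relative to the control figure.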

[1] = dose: 100.0 mg/kg/injection, schedule: Q01DX009 (ip), vehicle: Klucel (hydroxypropylcellulose) (HPC)
[2] = dose: 200.0 mg/kg/injection, schedule: Q01DX009 (ip), vehicle: Klucel (hydroxypropylcellulose) (HPC)
[3] = dose: 400.0 mg/kg/injection, schedule: Q01DX009 (ip), vehicle: Klucel (hydroxypropylcellulose) (HPC)
[4] = dose: 100.0 mg/kg/injection, schedule: Q01DX001 (ip), vehicle: other
[5] = dose: 200.0 mg/kg/injection, schedule: Q01DX001 (ip), vehicle: other
[6] = dose: 100.0 mg/kg/injection, schedule: Q04DX002 (ip), vehicle: Klucel (hydroxypropylcellulose) (HPC)
[7] = dose: 200.0 mg/kg/injection, schedule: Q04DX002 (ip), vehicle: Klucel (hydroxypropylcellulose) (HPC)
[8] = dose: 400.0 mg/kg/injection, schedule: Q04DX002 (ip), vehicle: Klucel (hydroxypropylcellulose) (HPC)
[9] = dose: 100.0 mg/kg/injection, schedule: Q01DX001 (ip), vehicle: carboxymethylcellulose (CMC)
[10] = dose: 200.0 mg/kg/injection, schedule: Q01DX001 (ip), vehicle: carboxymethylcellulose (CMC)
[11] = dose: 400.0 mg/kg/injection, schedule: Q01DX001 (ip), vehicle: carboxymethylcellulose (CMC)
[12] = dose: 100.0 mg/kg/injection, schedule: Q04DX003 (ip), vehicle: saline with Tween-80
[13] = dose: 200.0 mg/kg/injection, schedule: Q04DX003 (ip), vehicle: saline with Tween-80
[14] = dose: 400.0 mg/kg/injection, schedule: Q04DX003 (ip), vehicle: saline with Tween-80
[15] = dose: 25.0 mg/kg/injection, schedule: Q01DX009 (ip), vehicle: saline
[16] = dose: 50.0 mg/kg/injection, schedule: Q01DX009 (ip), vehicle: saline
[17] = dose: 100.0 mg/kg/injection, schedule: Q01DX009 (ip), vehicle: saline
[18] = dose: 200.0 mg/kg/injection, schedule: Q01DX009 (ip), vehicle: saline

Measured: T/C

CCCCCCCCC(C)c1ccccc1O (centres undefined)
inactive: [1] 104 % of control | [2] 101 % of control | [3] 112 % of control

C(=C1/CCCc2ccccc21)/c1ccccn1
inactive: [4] 98 % of control | [5] 103 % of control | dose: 400.0 mg/kg/injection, schedule: Q01DX001 (ip), vehicle: other 90 % of control

COCN1CCN(COC)C1=O
inactive: dose: 100.0 mg/kg/injection, schedule: Q04DX002 (ip), vehicle: saline 105 % of control | dose: 200.0 mg/kg/injection, schedule: Q04DX002 (ip), vehicle: saline 108 % of control | dose: 400.0 mg/kg/injection, schedule: Q04DX002 (ip), vehicle: saline 122 % of control

COC1(c2ccccc2)c2cc3ccccc3cc2C(OC)(c2ccccc2)c2cc3ccccc3cc21 (centres undefined)
inactive: [6] 98 % of control | [7] 109 % of control | [8] 95 % of control

O=C(Oc1ccc(N=Cc2ccc3c(c2)OCO3)cc1)Oc1ccc(N=Cc2ccc3c(c2)OCO3)cc1
inactive: [9] 96 % of control | [10] 95 % of control | [11] 93 % of control

O=C(O)c1cc(Cl)ccc1-c1ccc(Cl)cc1C(=O)Nc1ccc2c(c1)Cc1ccccc1-2
inactive: dose: 75.0 mg/kg/injection, schedule: Q01DX001 (ip), vehicle: carboxymethylcellulose (CMC) 102 % of control | dose: 150.0 mg/kg/injection, schedule: Q01DX001 (ip), vehicle: carboxymethylcellulose (CMC) 113 % of control | dose: 300.0 mg/kg/injection, schedule: Q01DX001 (ip), vehicle: carboxymethylcellulose (CMC) 104 % of control

C[CH2][Pb]([CH2]C)([CH2]C)[n]1ccnc1
inactive: [6] 95 % of control | [7] 95 % of control | [8] 100 % of control

CC(=O)OC(C)(C)C1CCC2(C)COC3(C)CC(=O)OC23C1 (centres undefined)
inactive: dose: 33.0 mg/kg/injection, schedule: Q04DX003 (ip), vehicle: saline 101 % of control | dose: 66.0 mg/kg/injection, schedule: Q04DX003 (ip), vehicle: saline 101 % of control

CC(C)(O)/C=C/C(=O)[C@](C)(O)[C@H]1[C@H](O)C[C@@]2(C)[C@@H]3CC=C4[C@@H](C[C@H](O)C(=O)C4(C)C)[C@]3(C)C(=O)C[C@]12C
inactive: dose: 0.5 mg/kg/injection, schedule: Q01DX001 (sc), vehicle: steriod suspending solution 102 % of control | dose: 1.0 mg/kg/injection, schedule: Q01DX001 (sc), vehicle: steriod suspending solution 98 % of control

CC(=O)Nc1ccc(C(=O)O)cc1O
inactive: dose: 100.0 mg/kg/injection, schedule: Q04DX003 (ip), vehicle: saline 92 % of control | dose: 200.0 mg/kg/injection, schedule: Q04DX003 (ip), vehicle: saline 92 % of control | dose: 400.0 mg/kg/injection, schedule: Q04DX003 (ip), vehicle: saline 95 % of control

O=[N+]([O-])CC(OCCCc1ccccc1)C(Cl)(Cl)Cl (centres undefined)
inactive: dose: 100.0 mg/kg/injection, schedule: Q01DX009 (ip), vehicle: saline with Tween-80 107 % of control | [12] 93 % of control | dose: 200.0 mg/kg/injection, schedule: Q01DX009 (ip), vehicle: saline with Tween-80 109 % of control | [13] 104 % of control | [14] 91 % of control

OCCSc1ccc2ccccc2c1
inactive: dose: 100.0 mg/kg/injection, schedule: Q04DX002 (ip), vehicle: saline with Tween-80 94 % of control | dose: 200.0 mg/kg/injection, schedule: Q04DX002 (ip), vehicle: saline with Tween-80 90 % of control | dose: 400.0 mg/kg/injection, schedule: Q04DX002 (ip), vehicle: saline with Tween-80 103 % of control

CCOC(=O)CNC(=O)CNC(=O)CNC(=O)CCCCSc1ncnc2nc[nH]c12
inactive: [15] 102 % of control | dose: 25.0 mg/kg/injection, schedule: Q01DX009 (oral), vehicle: saline 106 % of control | [16] 110 % of control | dose: 50.0 mg/kg/injection, schedule: Q01DX009 (oral), vehicle: saline 90 % of control | [17] 96 % of control | dose: 100.0 mg/kg/injection, schedule: Q01DX009 (oral), vehicle: saline 98 % of control | [18] 104 % of control | dose: 200.0 mg/kg/injection, schedule: Q01DX009 (oral), vehicle: saline 95 % of control | dose: 400.0 mg/kg/injection, schedule: Q01DX009 (ip), vehicle: saline 98 % of control | dose: 400.0 mg/kg/injection, schedule: Q01DX009 (oral), vehicle: saline 114 % of control | dose: 800.0 mg/kg/injection, schedule: Q01DX009 (ip), vehicle: saline 96 % of control | dose: 800.0 mg/kg/injection, schedule: Q01DX009 (oral), vehicle: saline 101 % of control

Cc1ccc(NC(=O)NCCCl)c2c1CCC2
inactive: dose: 100.0 mg/kg/injection, schedule: Q01DX001 (ip), vehicle: Klucel (hydroxypropylcellulose) (HPC) 95 % of control | dose: 200.0 mg/kg/injection, schedule: Q01DX001 (ip), vehicle: Klucel (hydroxypropylcellulose) (HPC) 92 % of control | dose: 400.0 mg/kg/injection, schedule: Q01DX001 (ip), vehicle: Klucel (hydroxypropylcellulose) (HPC) 96 % of control

C#CCCOC(=O)Nc1ccccc1
inactive: [1] 96 % of control | [2] 96 % of control | [3] 102 % of control

CN(C)CCOC(=O)/C=C/c1ccccc1
inactive: [16] 89 % of control | [17] 96 % of control | [18] 88 % of control

CCCCCP(=S)(CCCC)CCCCC
inactive: [6] 98 % of control | [7] 94 % of control | [8] 94 % of control

CN(C)C=Nc1ccc(Cl)c(Cl)c1
inactive: dose: 12.5 mg/kg/injection, schedule: Q01DX009 (ip), vehicle: saline 90 % of control | [15] 90 % of control | [16] 90 % of control | [12] 97 % of control

CC1=CC(C)(C)NC(=S)N1c1ccc(O)cc1
inactive: dose: 75.0 mg/kg/injection, schedule: Q01DX009 (ip), vehicle: saline with Tween-80 92 % of control | dose: 150.0 mg/kg/injection, schedule: Q01DX009 (ip), vehicle: saline with Tween-80 101 % of control | dose: 300.0 mg/kg/injection, schedule: Q01DX009 (ip), vehicle: saline with Tween-80 90 % of control

CN(CC(=O)O)CC1C(c2ccccc2)C1c1ccccc1 (centres undefined)
inactive: [6] 100 % of control | [7] 93 % of control

O=C1c2cc(F)ccc2-c2cc(Br)c([N+](=O)[O-])cc21
inactive: [9] 97 % of control | [10] 103 % of control | [11] 95 % of control

O=C(O)c1cnc(Cl)nc1Nc1ccccc1I
inactive: dose: 6.25 mg/kg/injection, schedule: Q01DX009 (ip), vehicle: saline with Tween-80 93 % of control | dose: 12.5 mg/kg/injection, schedule: Q01DX001 (ip), vehicle: saline with Tween-80 90 % of control | dose: 12.5 mg/kg/injection, schedule: Q01DX009 (ip), vehicle: saline with Tween-80 88 % of control | dose: 25.0 mg/kg/injection, schedule: Q01DX001 (ip), vehicle: saline with Tween-80 90 % of control

CC1OC1C(=O)Sc1ccccc1 (centres undefined)
inactive: dose: 25.0 mg/kg/injection, schedule: Q04DX003 (ip), vehicle: Klucel (hydroxypropylcellulose) (HPC) 100 % of control | dose: 50.0 mg/kg/injection, schedule: Q04DX003 (ip), vehicle: Klucel (hydroxypropylcellulose) (HPC) 103 % of control | dose: 100.0 mg/kg/injection, schedule: Q04DX003 (ip), vehicle: Klucel (hydroxypropylcellulose) (HPC) 93 % of control and 86 % of control

c1ccc(CSc2ncnc3nncnc23)cc1
inactive: dose: 5.0 mg/kg/injection, schedule: Q01DX001 (ip), vehicle: other 104 % of control | dose: 10.0 mg/kg/injection, schedule: Q01DX001 (ip), vehicle: other 95 % of control | dose: 20.0 mg/kg/injection, schedule: Q01DX001 (ip), vehicle: other 110 % of control | dose: 40.0 mg/kg/injection, schedule: Q01DX001 (ip), vehicle: other 101 % of control | dose: 80.0 mg/kg/injection, schedule: Q01DX001 (ip), vehicle: other 98 % of control | [4] 89 % of control | [5] 101 % of control

NNC(=O)c1ccc(O)cc1
inactive: [12] 95 % of control | [13] 101 % of control | [14] 97 % of control
